In US20240270809A1, “ORAL GLP RECEPTOR AGONISTS” (priority 2020, published 2024):
Positions of bridges follow the written chain, without caps; N, C: chain ends. Non-standard residues stand in square brackets, D forms with d. Residues, ends and D or L forms follow the SMILES beside them. *: point of attachment. Malonyl(2,2-Me2,histaminyl) = CC(C)(C(=O)NCCc1cnc[nH]1)C(=O)*; Ala(1H-tetrazol-5-yl) = N[C@@H](Cc1nnn[nH]1)C(=O)O; αMeL = CC(C)C[C@](C)(N)C(=O)O; Nle = CCCC[C@H](N)C(=O)O; Aib = CC(C)(N)C(=O)O

How the values were obtained:
[1] = Stability of peptides in Fasted-State Simulated Intestinal Fluid (FaSSIF); assay type: in vitro ADME; settings: FaSSIF with 10 mg/ml pancreatin, 37° C.; for remaining at 0.5 h: t=30 mins, pH 6.5, 10 mg/ml pancreatin; for remaining at 0.25 h: FaSSIF pH 6.5 with 10 mg/ml pancreatin, t = 15 mins
human GLP1 receptor = molecular target: T1, human GLP1 receptor (Homo sapiens, UniProt P43220); assay: cAMP accumulation assay, functional agonism of human GLP1 receptor; assay type: cell-based; settings: HEK cells infected with human GLP1 receptor BacMam virus, HTRF cAMP; for Emax: HEK293, read-out: Human GLP-1R agonist cAMP Emax; for EC50: read-out: Human GLP-1R agonist cAMP pEC50 (converted)
T1 construct: expressed in transfected cells; host or cells: HEK cells, BacMam virus transduction
T1 sequence (P43220 24-463): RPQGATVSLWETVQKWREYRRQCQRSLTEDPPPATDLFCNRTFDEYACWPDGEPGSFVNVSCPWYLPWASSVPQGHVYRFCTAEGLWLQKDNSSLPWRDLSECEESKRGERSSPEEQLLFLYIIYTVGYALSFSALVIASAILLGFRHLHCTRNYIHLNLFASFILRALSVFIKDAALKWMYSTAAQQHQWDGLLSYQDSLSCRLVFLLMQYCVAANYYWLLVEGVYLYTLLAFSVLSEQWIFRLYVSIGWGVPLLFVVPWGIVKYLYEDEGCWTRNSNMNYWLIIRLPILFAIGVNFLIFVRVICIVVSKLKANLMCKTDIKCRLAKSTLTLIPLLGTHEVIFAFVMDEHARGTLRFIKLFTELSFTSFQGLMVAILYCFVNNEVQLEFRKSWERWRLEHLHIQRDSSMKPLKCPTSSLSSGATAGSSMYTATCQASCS
In short: (§1)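 HTRF cAMP read-out: HEK cells expressing GLP1 or GLP2 receptor via 24 h BacMam infection, frozen before use; agonist exposure 45 min, 37° C, HBSS + 0.5 mM IBMX; stopped with detection reagents in lysis buffer.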

human GLP2 receptor = molecular target: T2, human GLP2 receptor (Homo sapiens, UniProt O95838); assay: cAMP accumulation assay, functional agonism of human GLP2 receptor; assay type: cell-based; settings: HEK cells infected with human GLP2 receptor BacMam virus, HTRF cAMP; for Emax: HEK293, read-out: Human GLP-2R agonist cAMP Emax; for EC50: read-out: Human GLP-2R agonist cAMP pEC50 (converted)
T2 construct: expressed in transfected cells; host or cells: HEK cells, BacMam virus transduction
T2 sequence (O95838 1-553): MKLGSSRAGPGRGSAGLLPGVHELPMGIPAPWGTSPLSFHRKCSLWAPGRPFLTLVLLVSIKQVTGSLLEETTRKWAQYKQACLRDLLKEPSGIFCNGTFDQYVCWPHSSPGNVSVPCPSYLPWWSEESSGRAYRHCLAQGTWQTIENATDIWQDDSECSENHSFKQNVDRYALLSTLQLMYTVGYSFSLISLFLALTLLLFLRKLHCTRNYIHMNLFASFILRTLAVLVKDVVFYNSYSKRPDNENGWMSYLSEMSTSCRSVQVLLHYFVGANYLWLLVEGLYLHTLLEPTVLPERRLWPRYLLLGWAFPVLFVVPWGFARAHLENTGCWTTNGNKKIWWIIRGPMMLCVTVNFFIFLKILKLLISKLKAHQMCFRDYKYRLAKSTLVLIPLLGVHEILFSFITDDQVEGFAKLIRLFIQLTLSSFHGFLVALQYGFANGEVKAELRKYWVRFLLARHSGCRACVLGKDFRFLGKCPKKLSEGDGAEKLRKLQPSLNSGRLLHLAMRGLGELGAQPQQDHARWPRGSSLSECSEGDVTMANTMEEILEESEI
In short: as §1

SMILES | remaining at 0.5 h [1] [%] | Emax (human GLP1 receptor) [%] | EC50 (human GLP1 receptor) [nM] | Emax (human GLP2 receptor) [%] | EC50 (human GLP2 receptor) [nM] | remaining at 0.25 h [1] [%]
CCCC[C@@H]1NC(=O)[C@H](CCC(=O)O)NC(=O)[C@@H](NC(=O)[C@H](CO)NC(=O)[C@H](Cc2ccccc2)NC(=O)[C@H](CO)NC(=O)CNC(=O)[C@H](Cc2nn[nH]n2)NC(=O)C(C)(C)C(=O)NCCc2c[nH]cn2)CCCCNC(=O)C[C@@H](C(=O)N[C@H](C(=O)N[C@@H](CC(C)C)C(=O)N[C@@H](CC(=O)O)C(=O)N[C@H]2CCC(=O)NCCCC[C@@H](C(=O)N[C@@H](CC(=O)O)C(=O)N[C@@H](Cc3ccccc3)C(=O)N[C@H](C(=O)N[C@@H](CC(N)=O)C(=O)N[C@@H](Cc3c[nH]c4ccccc34)C(=O)N[C@@H](CC(C)C)C(=O)N[C@H](C(=O)N[C@@H](CCC(N)=O)C(=O)N[C@H](C(=O)N[C@H]3CCC(=O)NCCCC[C@@H](C(N)=O)NC(=O)[C@H]([C@@H](C)O)NC(=O)[C@H]([C@@H](C)CC)NC3=O)[C@@H](C)O)[C@@H](C)CC)[C@@H](C)CC)NC(=O)[C@H](C)NC(=O)C(C)(C)NC(=O)[C@H](CCCCN)NC2=O)[C@@H](C)CC)NC(=O)[C@@H](Cc2ccccc2)NC1=O [Example 12] ({Malonyl(2,2-Me2,histaminyl)}-[Ala(1H-tetrazol-5-yl)]GSFSKE[Nle][dF]DILDEK[Aib]AKDFINWLIQTEITK-NH2; lactam 6-10, 14-18, 28-31; C-terminus assumed) | 10.7 | 94.5 | 0.251 | 105 | 0.0501 | 
CCCC[C@H](NC(=O)[C@H](CCC(=O)O)NC(=O)[C@@H]1CC(=O)NCCCC[C@H](NC(=O)[C@H](CC(=O)O)NC(=O)C(C)(C)NC(=O)[C@@H](N)Cc2c[nH]cn2)C(=O)N[C@@H](CO)C(=O)N[C@@H](Cc2ccccc2)C(=O)N[C@@H](CO)C(=O)N1)C(=O)N[C@H](Cc1ccccc1)C(=O)N[C@H](C(=O)N[C@@](C)(CC(C)C)C(=O)N[C@@H](CC(C)C)C(=O)N[C@@H](CC(=O)O)C(=O)N[C@H]1CCC(=O)NCCCC[C@@H](C(=O)N[C@@H](CC(=O)O)C(=O)N[C@@H](Cc2ccccc2)C(=O)N[C@H](C(=O)N[C@H]2CCC(=O)NCCCC[C@@H](C(=O)N[C@H](C(=O)N[C@@H](CCCCN)C(N)=O)[C@@H](C)O)NC(=O)[C@H]([C@@H](C)CC)NC(=O)[C@H](CC(C)C)NC(=O)[C@H](Cc3c[nH]c4ccccc34)NC2=O)[C@@H](C)CC)NC(=O)[C@H](C)NC(=O)[C@H](C)NC(=O)[C@H](CCCCN)NC1=O)[C@@H](C)O [Example 21] (H-H[Aib]DKSFSDE[Nle][dF]T[αMeL]LDEKAAKDFIEWLIKTK-NH2; lactam 4-8, 16-20, 24-28; N-terminus and C-terminus assumed) | 51.7 | 96.6 |  | 104 |  | 
CCCC[C@@H]1NC(=O)[C@H](CCC(=O)O)NC(=O)[C@H](CC(=O)O)NC(=O)[C@@H](NC(=O)[C@H](Cc2ccccc2)NC(=O)[C@H](CO)NC(=O)CNC(=O)[C@H](CC(=O)O)NC(=O)C(C)(C)NC(=O)[C@@H](N)Cc2c[nH]cn2)CCC(=O)NCCCC[C@@H](C(=O)N[C@H](C(=O)N[C@H](C(=O)N[C@@H](CC(C)C)C(=O)N[C@@H](CC(=O)O)C(=O)N[C@@H](CC(C)C)C(=O)N[C@@H](CCCCN)C(=O)N[C@@H](C)C(=O)N[C@@H](C)C(=O)N[C@@H](CCCCN)C(=O)N[C@@H](CC(=O)O)C(=O)N[C@@H](Cc2ccccc2)C(=O)N[C@H](C(=O)N[C@@H](CC(N)=O)C(=O)N[C@@H](Cc2c[nH]c3ccccc23)C(=O)N[C@@H](CC(C)C)C(=O)N[C@H](C(=O)N[C@@H](CCC(N)=O)C(=O)N[C@H](C(=O)N[C@H]2CCC(=O)NCCCC[C@@H](C(N)=O)NC(=O)[C@H]([C@@H](C)O)NC(=O)[C@H]([C@@H](C)CC)NC2=O)[C@@H](C)O)[C@@H](C)CC)[C@@H](C)CC)[C@@H](C)CC)[C@@H](C)O)NC1=O [Example 111] (H-H[Aib]DGSFEDE[Nle]KTILDLKAAKDFINWLIQTEITK-NH2; lactam 7-11, 30-33 (inferred); C-terminus assumed) |  | 93.2 | 0.794 | 104 | 0.631 | 26.9
CCCC[C@H](NC(=O)[C@H](CCC(=O)O)NC(=O)[C@H](CC(=O)O)NC(=O)[C@H](CO)NC(=O)[C@H](Cc1ccccc1)NC(=O)[C@H](CO)NC(=O)CNC(=O)[C@H](CC(=O)O)NC(=O)C(C)(C)NC(=O)[C@@H](N)Cc1c[nH]cn1)C(=O)N[C@H]1CC(=O)NCCCC[C@@H](C(=O)N[C@@H](CC(C)C)C(=O)N[C@@H](CCCCN)C(=O)N[C@@H](C)C(=O)N[C@@H](C)C(=O)N[C@@H](CCCCN)C(=O)N[C@@H](CC(=O)O)C(=O)N[C@@H](Cc2ccccc2)C(=O)N[C@H](C(=O)N[C@@H](CC(N)=O)C(=O)N[C@@H](Cc2c[nH]c3ccccc23)C(=O)N[C@@H](CC(C)C)C(=O)N[C@H](C(=O)N[C@@H](CCC(N)=O)C(=O)N[C@H](C(=O)N[C@@H](CCCCN)C(=O)N[C@H](C(=O)N[C@H](C(=O)N[C@@H](CC(=O)O)C(N)=O)[C@@H](C)O)[C@@H](C)CC)[C@@H](C)O)[C@@H](C)CC)[C@@H](C)CC)NC(=O)[C@H](CC(C)C)NC(=O)[C@H]([C@@H](C)CC)NC(=O)[C@H]([C@@H](C)O)NC1=O [Example 86] (H-H[Aib]DGSFSDE[Nle]DTILKLKAAKDFINWLIQTKITD-NH2; lactam 11-15; C-terminus assumed) |  | 93.5 | 25.1 | 103 | 0.0251 | 5.1
CCCC[C@H](NC(=O)[C@H](CCC(=O)O)NC(=O)[C@H](CC(=O)O)NC(=O)[C@H](CO)NC(=O)[C@H](Cc1ccccc1)NC(=O)[C@H](CO)NC(=O)CNC(=O)[C@H](Cc1nn[nH]n1)NC(=O)C(C)(C)C(=O)NCCc1c[nH]cn1)C(=O)N[C@H](Cc1ccccc1)C(=O)N[C@H](C(=O)N[C@H](C(=O)N[C@@H](CC(C)C)C(=O)N[C@@H](CC(=O)O)C(=O)N[C@H]1CC(=O)NCCCC[C@@H](C(=O)N[C@@H](CC(=O)O)C(=O)N[C@@H](Cc2ccccc2)C(=O)N[C@H](C(=O)N[C@@H](CC(N)=O)C(=O)N[C@@H](Cc2c[nH]c3ccccc23)C(=O)N[C@@H](CC(C)C)C(=O)N[C@H](C(=O)N[C@@H](CCC(N)=O)C(=O)N[C@H](C(=O)N[C@H]2CCC(=O)NCCCC[C@@H](C(N)=O)NC(=O)[C@H]([C@@H](C)O)NC(=O)[C@H]([C@@H](C)CC)NC2=O)[C@@H](C)O)[C@@H](C)CC)[C@@H](C)CC)NC(=O)[C@H](C)NC(=O)[C@H](C)NC(=O)[C@H](CCCCN)NC1=O)[C@@H](C)CC)[C@@H](C)O [Example 106] ({Malonyl(2,2-Me2,histaminyl)}-[Ala(1H-tetrazol-5-yl)]GSFSDE[Nle][dF]TILDDKAAKDFINWLIQTEITK-NH2; lactam 14-18, 28-31; C-terminus assumed) |  | 97.2 | 0.316 | 102 | 0.501 | 9.6
CCCC[C@H](NC(=O)[C@H](CCC(=O)O)NC(=O)[C@H](CC(=O)O)NC(=O)[C@H](CO)NC(=O)[C@H](Cc1ccccc1)NC(=O)[C@H](CO)NC(=O)CNC(=O)[C@H](Cc1nn[nH]n1)NC(=O)C(C)(C)C(=O)NCCc1c[nH]cn1)C(=O)N[C@H](Cc1ccccc1)C(=O)N[C@H]1CCCCNC(=O)C[C@@H](C(=O)N[C@@H](CCCCN)C(=O)N[C@@H](C)C(=O)N[C@@H](C)C(=O)NC(C)(C)C(=O)N[C@@H](CC(=O)O)C(=O)N[C@@H](Cc2ccccc2)C(=O)N[C@H](C(=O)N[C@@H](CC(N)=O)C(=O)N[C@@H](Cc2c[nH]c3ccccc23)C(=O)N[C@@H](CC(C)C)C(=O)N[C@H](C(=O)N[C@@H](CCC(N)=O)C(=O)N[C@H](C(=O)N[C@H]2CCC(=O)NCCCC[C@@H](C(N)=O)NC(=O)[C@H]([C@@H](C)O)NC(=O)[C@H]([C@@H](C)CC)NC2=O)[C@@H](C)O)[C@@H](C)CC)[C@@H](C)CC)NC(=O)[C@H](CC(=O)O)NC(=O)[C@H](CC(C)C)NC(=O)[C@H]([C@@H](C)CC)NC1=O [Example 109] ({Malonyl(2,2-Me2,histaminyl)}-[Ala(1H-tetrazol-5-yl)]GSFSDE[Nle][dF]KILDDKAA[Aib]DFINWLIQTEITK-NH2; lactam 10-14, 28-31) |  | 97 | 0.0251 | 102 | 0.00794 | 4.6
